pIC50: −log10 of the molar value.
What was measured:
IRAK1 = target: T1, IRAK1 (Homo sapiens, UniProt P51617); experiment: IRAK1 enzymatic assay (ADP-Glo luminescence); type: biochemical; settings: purified human recombinant His-TEV-IRAK1 (194-712)
T1 construct: His-TEV-IRAK1 (194-712); His (N); TEV cleavage site (N)
Summary of the method: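 Luminescent ADP-Glo read-out of ATP turnover by purified His-TEV-IRAK1 (194-712) at 0.3 μg/ml after a 2-hour RT reaction. Compounds, serially diluted from 10 μM to 0.5 nM, were preincubated with enzyme 15 minutes in Hepes pH 7.0 buffer with MgCl2, DTT, EGTA and Triton X-100.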

IRAK4 = target: T2, IRAK4 (Homo sapiens, UniProt Q9NWZ3); experiment: IRAK4 enzymatic assay (ADP-Glo luminescence); type: biochemical; settings: purified human recombinant His-TEV-IRAK4 (1-460), ATP 2 μM
T2 construct: His-TEV-IRAK4 (1-460); His (N); TEV cleavage site (N)
T2 sequence (Q9NWZ3 1-460): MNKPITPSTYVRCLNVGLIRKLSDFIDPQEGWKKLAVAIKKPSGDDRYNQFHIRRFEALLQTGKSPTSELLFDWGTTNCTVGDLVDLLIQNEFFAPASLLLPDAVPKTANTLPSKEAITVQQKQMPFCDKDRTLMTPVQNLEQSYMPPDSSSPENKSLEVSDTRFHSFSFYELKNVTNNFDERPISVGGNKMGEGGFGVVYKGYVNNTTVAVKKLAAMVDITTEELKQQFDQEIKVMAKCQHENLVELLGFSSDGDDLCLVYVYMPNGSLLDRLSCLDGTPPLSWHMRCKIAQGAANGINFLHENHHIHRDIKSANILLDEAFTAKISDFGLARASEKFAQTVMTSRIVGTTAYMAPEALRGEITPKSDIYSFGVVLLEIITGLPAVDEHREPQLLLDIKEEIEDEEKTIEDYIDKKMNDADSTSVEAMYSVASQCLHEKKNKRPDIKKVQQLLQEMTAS
Summary of the method: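 ADP-Glo luminescence read-out after a 2 h RT kinase reaction with 2 μM ATP and 300 nM biotinylated STK1 peptide. Enzyme (His-TEV-IRAK4 1-460, 0.3 μg/ml) first incubated 15 min with serially diluted compounds (10 μM–0.5 nM) in 50 mM Hepes pH 7.0, 10 mM MgCl2, 5 mM MnCl2.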

T1 sequence (P51617 194-712): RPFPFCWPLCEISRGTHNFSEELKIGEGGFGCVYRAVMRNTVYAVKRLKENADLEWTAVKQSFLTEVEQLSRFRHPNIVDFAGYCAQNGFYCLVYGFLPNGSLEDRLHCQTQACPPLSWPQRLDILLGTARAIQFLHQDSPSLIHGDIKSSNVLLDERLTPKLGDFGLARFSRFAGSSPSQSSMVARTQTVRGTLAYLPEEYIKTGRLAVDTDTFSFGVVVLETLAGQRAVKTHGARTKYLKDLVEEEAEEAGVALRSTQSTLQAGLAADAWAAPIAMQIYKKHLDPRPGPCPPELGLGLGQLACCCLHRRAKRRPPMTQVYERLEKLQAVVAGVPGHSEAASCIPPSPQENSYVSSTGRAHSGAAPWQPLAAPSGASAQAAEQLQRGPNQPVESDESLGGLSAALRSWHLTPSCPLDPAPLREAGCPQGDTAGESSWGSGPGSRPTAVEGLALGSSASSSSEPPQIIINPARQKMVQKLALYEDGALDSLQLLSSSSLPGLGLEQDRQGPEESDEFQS

SMILES | pIC50 (IRAK1) | pIC50 (IRAK4)
O=C1C[C@H](n2/c(=N/C(=O)c3cccc(C(F)(F)F)c3)[nH]c3cc(N4CCCOC4=O)ccc32)CN1 [Compound 154, (S,E)-N-(5-(2-oxo-1,3-oxazinan-3-yl)-1-(5-oxopyrrolidin-3-yl)-1H-benzo[d]imidazol-2(3H)-ylidene)-3-(trifluoromethyl)benzamide] | < 6.00 | 6.00 to 7.00
O=C(O)CCn1/c(=N/C(=O)c2cccc(C(F)(F)F)c2)[nH]c2cc(N3CCOCC3=O)ccc21 [Compound 166, (E)-3-(5-(3-oxomorpholino)-2-((3-(trifluoromethyl)benzoyl)imino)-2,3-dihydro-1H-benzo[d]imidazol-1-yl)propanoic acid] | < 6.00 | ≥ 7.00
O=C(O)Cn1/c(=N/C(=O)c2cccc(C(F)(F)F)c2)[nH]c2cc(N3CCOCC3=O)ccc21 [Compound 167, (E)-2-(5-(3-oxomorpholino)-2-((3-(trifluoromethyl)benzoyl)imino)-2,3-dihydro-1H-benzo[d]imidazol-1-yl)acetic acid] | < 6.00 | < 6.00
O=C(O)CCCn1/c(=N/C(=O)c2cccc(C(F)(F)F)c2)[nH]c2cc(N3CCCOC3=O)ccc21 [Compound 168, (E)-4-(5-(2-oxo-1,3-oxazinan-3-yl)-2-((3-(trifluoromethyl)benzoyl)imino)-2,3-dihydro-1H-benzo[d]imidazol-1-yl)butanoic acid] | < 6.00 | ≥ 7.00
O=C(O)CCCn1/c(=N/C(=O)c2cccc(C(F)F)c2)[nH]c2cc(N3CCCOC3=O)ccc21 [Compound 169, (E)-4-(2-((3-(difluoromethyl)benzoyl)imino)-5-(2-oxo-1,3-oxazinan-3-yl)-2,3-dihydro-1H-benzo[d]imidazol-1-yl)butanoic acid] | < 6.00 | ≥ 7.00
O=C(/N=c1\[nH]c2cc(N3CCCOC3=O)ccc2n1C1CCC1)c1cccc(C(F)(F)F)c1 [Compound 170, (E)-N-(1-cyclobutyl-5-(2-oxo-1,3-oxazinan-3-yl)-1H-benzo[d]imidazol-2(3H)-ylidene)-3-(trifluoromethyl)benzamide] | < 6.00 | ≥ 7.00
O=C(/N=c1\[nH]c2cc(N3CCCOC3=O)ccc2n1C1CCCC1)c1cccc(C(F)(F)F)c1 [Compound 171, (E)-N-(1-cyclopentyl-5-(2-oxo-1,3-oxazinan-3-yl)-1H-benzo[d]imidazol-2(3H)-ylidene)-3-(trifluoromethyl)benzamide] | < 6.00 | ≥ 7.00
O=C(/N=c1\[nH]c2cc(N3CCCOC3=O)ccc2n1C1CC1)c1cccc(C(F)(F)F)c1 [Compound 172, (E)-N-(1-cyclopropyl-5-(2-oxo-1,3-oxazinan-3-yl)-1H-benzo[d]imidazol-2(3H)-ylidene)-3-(trifluoromethyl)benzamide] | < 6.00 | ≥ 7.00
O=C(/N=c1\[nH]c2cc(N3CCCOC3=O)ccc2n1CC1(C(=O)O)CC1)c1cccc(C(F)(F)F)c1 [Compound 174, (E)-1-((5-(2-oxo-1,3-oxazinan-3-yl)-2-((3-(trifluoromethyl)benzoyl)imino)-2,3-dihydro-1H-benzo[d]imidazol-1-yl)methyl)cyclopropanecarboxylic acid] | 6.00 to 7.00 | ≥ 7.00
C#CCn1/c(=N/C(=O)c2cccc(C(F)(F)F)c2)[nH]c2cc(N3CCCOC3=O)ccc21 [Compound 175, (E)-N-(5-(2-oxo-1,3-oxazinan-3-yl)-1-(prop-2-yn-1-yl)-1H-benzo[d]imidazol-2(3H)-ylidene)-3-(trifluoromethyl)benzamide] | 6.00 to 7.00 | ≥ 7.00

Continued, values first:

pIC50 (IRAK1) | pIC50 (IRAK4) | SMILES
≥ 7.00 | ≥ 7.00 | O=C(/N=c1\[nH]c2cc(N3CCOCC3=O)ccc2n1CCCO)c1cccc(S(=O)(=O)C(F)(F)F)c1 [Compound 152, (E)-N-(1-(3-hydroxypropyl)-5-(3-oxomorpholino)-1H-benzo[d]imidazol-2(3H)-ylidene)-3-((trifluoromethyl)sulfonyl)benzamide]
≥ 7.00 | ≥ 7.00 | Cn1ccc(-c2cccc(C(=O)/N=c3\[nH]c4cc(N5CCOCC5=O)ccc4n3CCCO)c2)cc1=O [Compound 153, (E)-N-(1-(3-hydroxypropyl)-5-(3-oxomorpholino)-1H-benzo[d]imidazol-2(3H)-ylidene)-3-(1-methyl-2-oxo-1,2-dihydropyridin-4-yl)benzamide]
6.00 to 7.00 | ≥ 7.00 | O=C(/N=c1\[nH]c2cc(N3CCCOC3=O)ccc2n1CC1CCOCC1)c1cccc(C(F)(F)F)c1 [Compound 155, (E)-N-(5-(2-oxo-1,3-oxazinan-3-yl)-1-((tetrahydro-2H-pyran-4-yl)methyl)-1H-benzo[d]imidazol-2(3H)-ylidene)-3-(trifluoromethyl)benzamide]
6.00 to 7.00 | ≥ 7.00 | O=C(/N=c1\[nH]c2cc(N3CCCOC3=O)ccc2n1C1CC(F)(F)C1)c1cccc(C(F)(F)F)c1 [Compound 156, (E)-N-(1-(3,3-difluorocyclobutyl)-5-(2-oxo-1,3-oxazinan-3-yl)-1H-benzo[d]imidazol-2(3H)-ylidene)-3-(trifluoromethyl)benzamide]
≥ 7.00 | ≥ 7.00 | O=C(/N=c1\[nH]c2cc(N3CCCOC3=O)ccc2n1C1CCS(=O)(=O)C1)c1cccc(C(F)(F)F)c1 (stereo not drawn) [Compound 157, (E)-N-(1-(1,1-dioxidotetrahydrothiophen-3-yl)-5-(2-oxo-1,3-oxazinan-3-yl)-1H-benzo[d]imidazol-2(3H)-ylidene)-3-(trifluoromethyl)benzamide]
6.00 to 7.00 | ≥ 7.00 | O=C(/N=c1\[nH]c2cc(N3CCCOC3=O)ccc2n1CC1COC1)c1cccc(C(F)(F)F)c1 [Compound 158, (E)-N-(1-(oxetan-3-ylmethyl)-5-(2-oxo-1,3-oxazinan-3-yl)-1H-benzo[d]imidazol-2(3H)-ylidene)-3-(trifluoromethyl)benzamide]
6.00 to 7.00 | ≥ 7.00 | O=C(/N=c1\[nH]c2cc(N3CCCOC3=O)ccc2n1CC1COC1)c1cccc(C(F)F)c1 [Compound 159, (E)-3-(difluoromethyl)-N-(1-(oxetan-3-ylmethyl)-5-(2-oxo-1,3-oxazinan-3-yl)-1H-benzo[d]imidazol-2(3H)-ylidene)benzamide]
6.00 to 7.00 | ≥ 7.00 | O=C(/N=c1\[nH]c2cc(N3CCCOC3=O)ccc2n1CC1CCCCO1)c1cccc(C(F)F)c1 (stereo not drawn) [Compound 160, (E)-3-(difluoromethyl)-N-(5-(2-oxo-1,3-oxazinan-3-yl)-1-((tetrahydro-2H-pyran-2-yl)methyl)-1H-benzo[d]imidazol-2(3H)-ylidene)benzamide]
≥ 7.00 | ≥ 7.00 | N#Cc1cccc(C(=O)/N=c2\[nH]c3cc(N4CCCOC4=O)ccc3n2CC2CCCCO2)c1 (stereo not drawn) [Compound 161, (E)-3-cyano-N-(5-(2-oxo-1,3-oxazinan-3-yl)-1-((tetrahydro-2H-pyran-2-yl)methyl)-1H-benzo[d]imidazol-2(3H)-ylidene)benzamide]
≥ 7.00 | ≥ 7.00 | O=C(/N=c1\[nH]c2cc(N3CCCOC3=O)ccc2n1CC1(O)CCCC1)c1cccc(C(F)(F)F)c1 [Compound 162, (E)-N-(1-((1-hydroxycyclopentyl)methyl)-5-(2-oxo-1,3-oxazinan-3-yl)-1H-benzo[d]imidazol-2(3H)-ylidene)-3-(trifluoromethyl)benzamide]
6.00 to 7.00 | ≥ 7.00 | O=C(/N=c1\[nH]c2cc(N3CCOCC3=O)ccc2n1CCCO)c1cccc(-c2ccn(CC(F)(F)F)c(=O)c2)c1 [Compound 163, (E)-N-(1-(3-hydroxypropyl)-5-(3-oxomorpholino)-1H-benzo[d]imidazol-2(3H)-ylidene)-3-(2-oxo-1-(2,2,2-trifluoroethyl)-1,2-dihydropyridin-4-yl)benzamide]
6.00 to 7.00 | ≥ 7.00 | O=C(/N=c1\[nH]c2cc(N3CCOCC3=O)ccc2n1CCCO)c1cccc(-c2ccn(C(F)F)c(=O)c2)c1 [Compound 164, (E)-3-(1-(difluoromethyl)-2-oxo-1,2-dihydropyridin-4-yl)-N-(1-(3-hydroxypropyl)-5-(3-oxomorpholino)-1H-benzo[d]imidazol-2(3H)-ylidene)benzamide]
6.00 to 7.00 | 6.00 to 7.00 | CN1CCC(n2/c(=N/C(=O)c3cccc(C(F)F)c3)[nH]c3cc(N4CCOCC4=O)ccc32)CC1 [Compound 165, (E)-3-(difluoromethyl)-N-(1-(1-methylpiperidin-4-yl)-5-(3-oxomorpholino)-1H-benzo[d]imidazol-2(3H)-ylidene)benzamide]
6.00 to 7.00 | ≥ 7.00 | CC(C)(C)Cn1/c(=N/C(=O)c2cccc(C(F)(F)F)c2)[nH]c2cc(N3CCCOC3=O)ccc21 [Compound 173, (E)-N-(1-neopentyl-5-(2-oxo-1,3-oxazinan-3-yl)-1H-benzo[d]imidazol-2(3H)-ylidene)-3-(trifluoromethyl)benzamide]
